As usually defined, the IC50 is the midpoint of a concentration-inhibition curve.

For the assay, the target named is T1, ATP-citrate synthase (Homo sapiens, UniProt P53396).
T1 sequence (P53396 whole entry): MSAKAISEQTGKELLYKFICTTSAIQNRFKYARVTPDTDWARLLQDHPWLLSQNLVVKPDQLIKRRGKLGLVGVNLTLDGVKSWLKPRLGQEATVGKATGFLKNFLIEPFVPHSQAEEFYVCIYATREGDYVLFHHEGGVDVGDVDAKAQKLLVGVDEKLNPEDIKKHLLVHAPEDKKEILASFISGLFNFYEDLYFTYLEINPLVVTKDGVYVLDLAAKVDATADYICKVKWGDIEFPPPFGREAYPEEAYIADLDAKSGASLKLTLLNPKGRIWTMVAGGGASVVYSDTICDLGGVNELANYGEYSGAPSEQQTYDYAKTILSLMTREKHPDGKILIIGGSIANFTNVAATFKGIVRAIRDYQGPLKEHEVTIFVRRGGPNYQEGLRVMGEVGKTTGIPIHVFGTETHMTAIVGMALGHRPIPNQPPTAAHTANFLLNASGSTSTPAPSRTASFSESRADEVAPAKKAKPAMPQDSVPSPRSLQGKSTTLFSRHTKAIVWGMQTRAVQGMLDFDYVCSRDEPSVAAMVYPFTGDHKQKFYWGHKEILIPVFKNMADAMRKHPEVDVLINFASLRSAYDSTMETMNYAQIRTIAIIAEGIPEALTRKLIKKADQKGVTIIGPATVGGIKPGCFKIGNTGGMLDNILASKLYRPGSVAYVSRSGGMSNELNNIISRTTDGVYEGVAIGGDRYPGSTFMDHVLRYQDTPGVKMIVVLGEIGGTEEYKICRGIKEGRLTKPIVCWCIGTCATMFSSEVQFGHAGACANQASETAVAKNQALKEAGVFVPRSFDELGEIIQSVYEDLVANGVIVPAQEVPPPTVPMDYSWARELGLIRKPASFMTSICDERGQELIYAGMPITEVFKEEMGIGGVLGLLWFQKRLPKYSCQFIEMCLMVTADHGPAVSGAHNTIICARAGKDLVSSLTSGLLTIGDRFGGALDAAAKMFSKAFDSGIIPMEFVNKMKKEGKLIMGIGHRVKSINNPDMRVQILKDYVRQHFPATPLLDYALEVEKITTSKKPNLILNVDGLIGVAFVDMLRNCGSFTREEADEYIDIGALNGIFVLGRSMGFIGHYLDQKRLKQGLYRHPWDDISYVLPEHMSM
Briefly: Inhibition of ACL (unknown origin) incubated for 30 mins in presence of ATP by luminescence based ADP-Glo kinase assay.
Take `CC(C)C1=CC[C@H]2C(=C1)CC[C@@H]1[C@]2(C)CCC[C@@]1(C)C(=O)O`: the IC50 is above 40 µM.

In the case of `C=C1CC[C@@](C)([C@H](C)CC(=O)C[C@@](C)(C(=O)O)[C@]2(C(=C)C)C=C3CC[C@@H]4[C@](C)(CCC[C@@]4(C)C(=O)O)[C@H]3CC2)[C@@]12CCC1=C2CC[C@H]2C(C)(C)C(=O)CC[C@]12C`, the 50% inhibitory concentration (IC50) was 22.8 µM.

With `C=C1CC[C@@](C)([C@H](C)CC(=O)C[C@]2(C(=O)O)C[C@H]3C[C@@H]4[C@@]5(C)CCC[C@@](C)(C(=O)O)[C@@H]5CC[C@]42C=C3C(C)C)[C@@]12CCC1=C2CC[C@@H]2[C@@H]1CCC(=O)C2(C)C`, the concentration for half-maximal inhibition (IC50) was found to be 1.8 µM.

As for `COc1ccc(-c2ccccc2)cc1NS(=O)(=O)c1cc(Cl)cc(Cl)c1O`, the half-inhibitory concentration (IC50) turned out to be 0.46 µM.

Regarding `C=C1CC[C@@](C)([C@H](C)CC(=O)[C@H]2[C@H]3C[C@@H]4[C@@]5(C)CCC[C@@](C)(C(=O)O)[C@@H]5CC[C@@]4(C=C3C(C)C)[C@]2(C)C(=O)O)[C@@]12CCC1=C2CC[C@H]2C(C)(C)C(=O)CC[C@]12C`, the half-maximal inhibitory concentration (IC50) amounted to 4.1 µM.

On to `CC(C)C1=C[C@@]23CC[C@@H]4[C@](C)(CCC[C@@]4(C)C(=O)O)[C@H]2C[C@@H]1[C@H](C(=O)C[C@@H](C)[C@H]1CC[C@@]2(C)C4=C(CC[C@]12C)[C@H]1CCC(=O)C(C)(C)[C@@H]1CC4)[C@@]3(C)C(=O)O`, for which the IC50 turned out to be 6.2 µM.

As to `C=C1CC[C@@](C)([C@H](C)CC(=O)C[C@@]2(C(=O)O)C[C@H]3C[C@@H]4[C@@]5(C)CCC[C@@](C)(C(=O)O)[C@@H]5CC[C@]42C=C3C(C)C)[C@@]12CCC1=C2CC[C@@H]2[C@@H]1CCC(=O)C2(C)C`, the IC50 came to 3.3 µM.

For the molecule `C=C1CC[C@@](C)([C@H](C)CC(=O)[C@H]2[C@H]3C[C@@H]4[C@@]5(C)CCC[C@@](C)(C(=O)O)[C@@H]5CC[C@]45C(OC(=O)[C@]25C)C3=C(C)C)[C@@]12CCC1=C2CC[C@H]2C(C)(C)C(=O)CC[C@]12C`, the IC50 was found to be 10.8 µM.

With `C=C1CC[C@@](C)([C@H](C)CC(=O)C[C@]2(C(=O)O)C[C@H]3C[C@@H]4[C@@]5(C)CCC[C@@](C)(C(=O)O)[C@@H]5CC[C@]42C=C3C(C)C)[C@@]12CCC1=C2CC[C@@H]2[C@@H]1CC[C@H](O)C2(C)C`, the IC50 was 7.1 µM.

On to `CC(C)C1=C[C@@]23CC[C@@H]4[C@](C)(CCC[C@@]4(C)C(=O)O)[C@H]2C[C@@H]1C[C@@]3(CC(=O)C[C@@H](C)[C@H]1CC[C@@]2(C)C3=C(CC[C@]12C)[C@H]1CCC(=O)C(C)(C)[C@@H]1CC3)C(=O)O`, for which the IC50 stood at 2.6 µM.

On to `C=C1CC[C@@](C)([C@H](C)CC(=O)C[C@](C)(C(=O)O)[C@]2(C(=C)C)C=C3CC[C@@H]4[C@](C)(CCC[C@@]4(C)C(=O)O)[C@H]3CC2)[C@@]12CCC1=C2CC[C@H]2C(C)(C)C(=O)CC[C@]12C`, for which the half-maximal inhibitory concentration (IC50) worked out at 11 µM.

With `C=C1CC[C@@](C)([C@H](C)CC(=O)[C@@H]2[C@H]3C[C@@H]4[C@@]5(C)CCC[C@@](C)(C(=O)O)[C@@H]5CC[C@@]4(C=C3C(C)C)[C@@]2(C)C(=O)O)[C@@]12CCC1=C2CC[C@H]2C(C)(C)C(=O)CC[C@]12C`, the IC50 came to 3.6 µM.

`C=C1CC[C@@H]([C@H](C)CC(=O)/C=C(\C)C(=O)O)[C@@]12CCC1=C2CC[C@H]2C(C)(C)C(=O)CC[C@]12C`: the IC50 turned out to be 34.9 µM.
